Results taken from US11364211B2, “Methods for selecting phosphatase selective and non-selective phosphatase inhibitors” (MEDICAL RESEARCH COUNCIL, priority 2015, dated 2022).
Entries after “also recorded” stand apart in the source; their conditions may differ.

How the values were obtained:
[1] = biological target: T1, PPP1R15B-PP1 complex (Homo sapiens, UniProt Q5SWA1); assay: SPR steady-state binding to R15B-PP1c holophosphatase on streptavidin chip; details: SPR
T1 construct: 340-698 of PPP1R15B were His-tagged and cloned into pMAL-c5x; made in house; host or cells: R15B fragment: E. coli BL21-Gold; BAP-PP1γ: Sf9 insect cells (baculovirus)
Protocol: The streptavidin coated surface was activated by 1 min injection with a solution of 50 mM NaOH and 1 M NaCl. Biotin-PP1 was diluted in the running buffer (50 mM Tris pH 7.5, 100 mM NaCl, 0.1 mM EGTA, 1 mM MnCl2, 0.05% Tween 20) and injected at approximately 300 nM concentration directly to streptavidin coated surface for 100 sec or to reach immobilization level of biotin-PP1 corresponding to ˜7000 RU. A blank immobilization was performed for one of the SA sensor chip surface to use as a reference.
With minor deviations, the same procedure and conditions were used in all binding experiments. Small molecules were stored as 50 mM stock solutions in 100% DMSO. Prior to determining binding constants, serial dilutions of either 12 or 8 concentrations of the compounds were prepared in the running buffer in a 96-well plate. […] Then, without regenerating the surface, the compound dilution series was injected onto the surface of the chip Sensorgrams were analyzed using the Biacore T200 evaluation software and the binding constants determined based on a steady-state model. Kinetic experiments are carried out using different concentrations of the compound and their respective equilibrium binding levels determined.
Surface Plasmon Resonance (SPR) was used to measure the binding affinity of compounds to the PPP1R15A/B-PP1 phosphatase complex. Biotin acceptor peptide (BAP) was fused to the N-terminus of PP1γ, which enables the biotinylation of the BAP-tagged protein in Sf9 insect cells. After purification the BAP-PP1γ protein was captured on a streptavidin sensor chip (SA-chip, GE healthcare) to a response level of ˜5.000 RU. Using controlled biotinylation enables orientated and uniform immobilization on the sensor chip surface. The PP1γ was then used to capture PPP1R15A/B and form a holophosphatase complex on the surface of the streptavidin chip. This complex can then be used to test binding of compounds. 10 μM PPP1R15A/B protein concentration was used to form the holophosphatase complex during a 80 s injection. […] After the concentration series (8 or 12 concentrations) is completed the surface is regenerated with 3 M NaCl and we can capture R15A/B again to form a fresh holophosphatase complex to measure a binding of another compound concentration series. Analysing the level of equilibrium binding as a function of concentration gives interaction affinities or steady-state binding affinity (KD).
The streptavidin coated surface was activated by 1 minute injection with a solution of 50 mM NaOH and 1 M NaCl three times at a flow rate of 10 μl/min. bio-GBZ or bio-PP1c was diluted in the running buffer (50 mM Tris pH 7.5, 100 mM NaCl, 0.1 mM EGTA, 0.05% Tween 20, 0.1% DMSO) and injected at approximately 300 nM concentration at a flow rate of 10 μl/min directly to streptavidin coated surface to reach immobilization level of bio-GBZ or bio-PP1c corresponding to ˜200 and 6000 RU, respectively. A blank immobilization was performed for one of the SA sensor chip surface to use as a reference.
With minor deviations, the same procedure and conditions were used in all binding experiments. Small molecules were stored as 50 mM stock solutions in 100% DMSO. Prior to determining binding constants, serial dilutions of either 12 or 8 concentrations of the compounds were prepared in the running buffer in a 96-well plate. […] This was followed by 1 minute stabilization period, to wash off any unspecific binding. Then, without regenerating the surface, the compound dilution series was injected onto the surface of the chip at a flow rate of 30 μl/min for 1 minute, followed by 2 minutes dissociation time. After each dilution series the surface was regenerated using 3 M NaCl for 90 seconds. […] In order to be able to correct for small variations in DMSO concentration between samples, eight solvent samples ranging from 0.06 to 8% DMSO were injected every 50th cycle. The flow cell temperature was 10° C.

[2] = test system: eIF2α phosphorylation in HeLa cells; assay: eIF2α phosphorylation in cells in the absence of stress (immunoblot); format: cell-based, human; details: for eIF2α phosphorylation in the absence of stress: human/HeLa cells, basal conditions, TST3 at 10 μM
Protocol: For immunoblots, HeLa cells (80,000 cells/ml) were plated in 12-well plates 24 hours before each experiment. Immediately after the indicated treatments, cells were lysed in 75 μl Laemmli Buffer, boiled at 95° C. for 5 minutes and sonicated. Proteins were separated and analysed as described (Tsaytler et al., Science, 332, 91-94, 2011) with the following antibodies: phospho-elf2α [pS52] and PPP1R15A/GADD34 (10449-1-AP; ProteinTech Group, 1/1000 dilution).
Human cells were treated with a PPP1R15B inhibitor and eIF2α phosphorylation was monitored over time. […] This was manifested between 1 and 7.5 hours after addition of the compound of Example 1. […] Indeed, the inventors noticed that PPP1R15A was induced at the late time points following addition of the compound of Example 1 (see Assay 3). […] Furthermore, this establishes that the compound of Example 1 spares PPP1R15A. This assay can serve to identify other selective PPP1R15B inhibitors.
Cells (90,000 cells/ml) were plated in a 24-well plate and treated as indicated. At the end of treatment cells were lysed in 150 μl Laemmli Buffer. Lysates were boiled at 95° C. for 5 minutes, sonicated and resolved on 4-12% Bolt Bis-Tris Plus Gels (Thermo Fisher Scientific). Proteins were transferred to the nitrocellulose membrane using the iBlot 2 system (Thermo Fisher Scientific) and analysed using the following antibodies: e-IF2α-P (44-728G, Thermo Fisher Scientific, 1:1000), e-IF2α (ab5369, Abcam, 1:1000), tubulin (T5168, Sigma-Aldrich, 1:4000), BiP (610978, BD Biosciences Pharmingen, 1:1000), ATF4 (sc-200, Santa Cruz Biotechnology, 1:500), Ppp1r15a (10449-1-AP, Proteintech, 1:1000) and Ppp1r15b (14634-1-AP, Proteintech, 1:1000). Proteins were visualized using ECL Prime (GE Healthcare).

[3] = test system: HeLa cells; assay: Translation rates by 35S-methionine labelling in HeLa cells; format: cell-based, human; details: for protein synthesis / translation rates: basal conditions, 10 μM
Protocol: Cells (90,000 cells/ml) were plated in 12-well plates, treated as indicated, labelled with 100 μCi/ml ^35S-methionine (Hartmann Analytic) for 10 minutes at 37° C., washed with ice-cold PBS and lysed in 120 μl Laemmli Buffer. Lysates were boiled at 95° C. for 5 minutes, sonicated and resolved on 4-12% Bolt Bis-Tris Plus Gels (Thermo Fisher Scientific). Gels were then stained with InstantBlue (Expedeon) and analyzed by phosphorimaging.

T1 sequence (Q5SWA1 340-698): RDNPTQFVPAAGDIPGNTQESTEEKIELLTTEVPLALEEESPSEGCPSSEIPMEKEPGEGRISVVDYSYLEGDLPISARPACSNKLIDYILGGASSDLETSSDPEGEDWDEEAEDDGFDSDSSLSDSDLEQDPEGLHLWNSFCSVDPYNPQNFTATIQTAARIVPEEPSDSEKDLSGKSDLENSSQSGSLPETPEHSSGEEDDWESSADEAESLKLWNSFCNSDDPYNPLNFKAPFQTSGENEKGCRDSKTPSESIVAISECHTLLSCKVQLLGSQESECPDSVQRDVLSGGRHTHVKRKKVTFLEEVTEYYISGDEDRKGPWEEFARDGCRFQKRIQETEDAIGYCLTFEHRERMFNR
T1 sequence (P36873 whole entry partner, the tested form may be a part): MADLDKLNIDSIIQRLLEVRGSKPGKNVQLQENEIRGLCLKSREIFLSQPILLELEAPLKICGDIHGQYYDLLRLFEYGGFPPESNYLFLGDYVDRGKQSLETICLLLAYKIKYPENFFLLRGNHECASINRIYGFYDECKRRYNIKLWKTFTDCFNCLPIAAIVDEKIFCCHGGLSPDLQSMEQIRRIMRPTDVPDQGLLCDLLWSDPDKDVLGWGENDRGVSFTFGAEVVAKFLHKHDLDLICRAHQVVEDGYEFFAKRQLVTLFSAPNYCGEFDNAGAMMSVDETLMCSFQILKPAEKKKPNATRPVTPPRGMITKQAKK

Compound | binding to R15B-PP1c (in words) [1] | Kd ([1]; steady-state affinity) | eIF2α phosphorylation in the presence of GBZ ([2]; HeLa cells, TST3+GBZ at 10 μM) | time after addition at which eIF2α phosphorylation returned to basal levels ([2]; absence of stress) | eIF2α phosphorylation in the absence of stress [2] | eIF2α phosphorylation in the absence of stress ([2]; listed as TST3) | protein synthesis in the presence of GBZ ([3]; TST3+/- GBZ at 10 μM) | protein synthesis / translation rates ([3]; listed as TST3) | binding to R15B-PP1c (in words) ([1]; listed as GBZ) | protein synthesis / translation rates [3]
[H]/N=C(\N)NN=Cc1cccc(Cl)c1Cl [Example 1, (E)-2-(2,3-dichlorobenzylidene)hydrazine-1-carboximidamide] | bound strongly and selectively | 33 nM | persistently induces eIF2α phosphorylation; also recorded: rendered persistent | 10 h | induced eIF2α phosphorylation; also recorded: induces a transient phosphorylation of eIF2α | transiently induces eIF2α phosphorylation; also recorded: rapidly and transiently increased eIF2α phosphorylation | persistently inhibits protein synthesis; also recorded: rendered persistent | transiently reduces protein synthesis; also recorded: rapidly and transiently decreased | – | –
N=C(N)N/N=C/c1c(Cl)cccc1Cl [Guanabenz, reference compound] | – | – | – | – | did not affect | – | – | – | not or weakly; also recorded: no binding was detected | did not affect
